# Literature values in patent EP3473244A1, “CONTROLLED RELEASE ORAL TAMSULOSIN HYDROCHLORIDE” (Veru Inc., priority 2017, dated 2019).
# Conditions: reported value used to set PK sampling times
smiles,measurement,value
CCOc1ccccc1OCCN[C@H](C)Cc1ccc(OC)c(S(N)(=O)=O)c1 [Tamsulosin],T ½,5 h
